pIC50: −log10 of the molar value.
target: Human immunodeficiency virus type 1 integrase (Human immunodeficiency virus 1, UniProt Q7ZJM1); test: Inhibitory activity against HIV-1 integrase
Sequence (Q7ZJM1 whole entry): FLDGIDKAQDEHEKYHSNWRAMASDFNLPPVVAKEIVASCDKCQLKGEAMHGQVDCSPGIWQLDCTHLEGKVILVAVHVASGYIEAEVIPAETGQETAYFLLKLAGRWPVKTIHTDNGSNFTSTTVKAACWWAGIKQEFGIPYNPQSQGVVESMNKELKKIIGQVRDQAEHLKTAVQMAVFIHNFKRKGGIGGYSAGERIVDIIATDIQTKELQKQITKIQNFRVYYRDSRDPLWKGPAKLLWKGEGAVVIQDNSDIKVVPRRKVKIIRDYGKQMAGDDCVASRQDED

`O=C(O)C(Cc1ccc(O)c(O)c1)C(Cc1ccc(O)c(O)c1)C(=O)O` (stereo not given) and `O=C(O)C(c1ccc(O)c(O)c1)C(C(=O)O)c1ccc(O)c(O)c1` (stereo not given) are within 0.2 log units of each other in pIC50: 4.72 for the first, 4.63 for the second.

`COc1ccc(CC(C(=O)O)C(Cc2ccc(OC)c(OC)c2)C(=O)O)cc1OC` (stereo not given) and `COc1ccc(C(C(=O)O)C(C(=O)O)c2ccc(OC)c(OC)c2)cc1OC` (stereo not given) cannot be ordered by pIC50: less than 3.82 for the first, less than 3.82 for the second.

Going from `O=C1NC(=O)C(c2ccc(O)c(O)c2)=C1c1ccc(O)c(O)c1` to `O=C1OC(=O)C(c2ccc(O)c(O)c2)=C1c1ccc(O)c(O)c1`, the pIC50 rises from 4.81 to 5.42 (0.61 log units).

`COc1ccc(C2=C(c3ccc(OC)c(OC)c3)C(=O)NC2=O)cc1OC` and `COc1ccc(C2=C(c3ccc(OC)c(OC)c3)C(=O)OC2=O)cc1OC` cannot be ordered by pIC50: less than 3.82 for the first, less than 3.82 for the second.

First: O=C(O)c1[nH]c(C(=O)O)c(-c2ccc(O)c(O)c2)c1-c1ccc(O)c(O)c1
Second: COc1ccc(-c2c(C(=O)O)[nH]c(C(=O)O)c2-c2ccc(OC)c(OC)c2)cc1OC
The pIC50 of the first is higher: 5.28 for the first, less than 3.82 for the second. The first is the more potent here.
